Data taken from paper PMC7819857, “Identification of Inhibitors of Integrin Cytoplasmic Domain Interactions With Syk” (Frontiers in Immunology, 2021).
Where two headings read alike, the source gives them in different places.

What was measured:
GST-free Syk(6-370) = biological target: T1, GST-free Syk(6-370) (Homo sapiens, UniProt P43405); experiment: Thermal denaturation assay (SYPRO orange); format: binding; settings: Syk(6-370) 2 µM, dose-dependent
T1 construct: Syk 6-370 (GST tag removed by thrombin cleavage) was used; GST (N, cleaved yes); made in house; host or cells: E. coli BL21(DE3)
Method: In this assay, Syk 6-370 (GST tag removed by thrombin cleavage) was used. Thrombin (GE Healthcare cat#270846, reconstituted in PBS to 1 unit/ul) was applied to the GST-Syk 6-370 protein bound to the Glutathione Sepharose beads. The GST-tag was cleaved with 20 unit/1 ml of protein-GST beads in PBS overnight at room temperature. After chromatography and additional cleaning on GST-beads, the purified protein was verified by SDS-PAGE. For thermal denaturation experiments, GST-free Syk(6-370) was used at a final concentration of 2 µM and SYPRO orange (Thermo Scientific, cat# S6650) at a 0.08% (v/v) dilution (from a 5000x stock). Compounds were used at indicated concentrations. Numerous reaction buffers were initially screened, and a final buffer containing 25 mM HEPES (pH 7.5) with 100 mM NaCl was used. Assays were performed in 20 µl volumes, in triplicate, in 384-well plates (Applied Biosystems MicroAmp 384-well clear optical reaction plate, catalogue #4483285). Plates were sealed with Applied Biosystems Optical Adhesive Cover (cat#4360954) and centrifuged for 2 min at 800 × g at room temperature. Thermal denaturation was measured on a Quant Studio 6 Flex Real-time PCR system (Applied Biosystems). […]

[1] = biological target: T2, integrin β3 cytoplasmic domain (bβ3(fl)) : GST-Syk(6-370) (Homo sapiens, UniProt P43405); experiment: ELISA-based orthogonal assay, bβ3(fl) and GST-Syk(6-370); format: binding
T2 construct: the tandem SH2 domains of Syk (residues 6-370); made in house; host or cells: E. coli BL21(DE3)
Method: For ELISA-based assays, 96-well plates (Costar cat# 9018) were coated overnight at 4°C with neutravidin (Thermo Scientific, cat#31050) in 10 mM Tris pH 9 and 100 mM NaCl. After overnight incubation, non-specific binding sites were blocked with bovine serum albumin (BSA) (2% w/v) for at least 1 h at room temperature. Plates were washed in 25 mM HEPES pH 7.5, 100 mM NaCl, 0.1% BSA, and 0.01% TritonX-100 (assay buffer), and indicated biotinylated β3 peptide was incubated for at least 2 h at room temperature (0.5–3 ug/ml in di-H2O). After washing in the assay buffer, GST-fusion proteins were added (50 ul, indicated concentrations) and incubated at room temperature for 1 h in assay buffer. For compound inhibition studies, compounds were added to GST-fusion proteins (at indicated concentrations) before they were added to plates. Plates were washed 3× with assay buffer (200 ul) to remove unbound GST-fusion protein. Horseradish peroxidase (HRP)-conjugated anti-GST antibody [Polyclonal anti-GST(Z-5)-HRP, Santa Cruz Biotechnology, cat #sc-459 0.2 ug/ml] was incubated in washed plates in 50 ul assay buffer for 45 min at room temperature. After washing, the signal was generated with 1-step Ultra TMB-ELISA (Thermo Scientific, cat#34028), stopped with 2 N H2SO4, and read on a plate reader (SPARK 10M/Tecan) at 450 nm.
Figure 3 Dose-response curves in primary and orthogonal screens. (A) AlphaScreen dose-response curves. […] Data are expressed as mean fluorescence (Fl520) ± range from duplicates, and one representative experiment of “n” performed is shown. (B) Orthogonal ELISA-based dose-response assays. […] Data are expressed as mean abs450 ± SEM from triplicate determinations, and one of three representative experiments is shown. (C) Ceftazidime inhibition of β3 peptide binding to Syk from THP-1 whole cell lysate. THP-1 cell lysate (100 ug) was treated with or without ceftazidime (Ctaz) before incubation with β3-coated avidin-agarose beads, and bound Syk was measured by western blot (example shown in inset). Blank beads served as a negative control. […]

[2] = biological target: T3, integrin β3 cytoplasmic domain : tandem SH2 domains of Syk (GST-Syk(6-370)) (Homo sapiens, UniProt P43405); experiment: AlphaScreen of integrin β3 cytoplasmic domain peptide binding to GST-Syk(6-370); settings: for fold difference in inhibition, primary screen over false-positive counter screen (hit criterion): re-sourced compounds, counter screen with biotinylated GST; for inhibition of fluorescent signal in the primary screen, re-sourced compounds (hit criterion): re-sourced from a separate commercial source, 25 uM in text, 30 uM in legend of Figure 2C
T3 construct: the tandem SH2 domains of Syk (residues 6-370); made in house; host or cells: E. coli BL21(DE3)
Method: The following HTS assay was developed to identify antagonists of the interaction between the integrin β3 cytoplasmic domain and the non-receptor tyrosine kinase Syk. […] ( Figure 1E ). Background signals in this assay were determined by omitting the integrin β3 peptide. Specific assay conditions are described in Table 1 . […] Then, either dimethyl sulfoxide control or compound was added, followed by biotinylated β3 peptide, and avidin-coated AlphaScreen donor beads. After a 4-h incubation period at room temperature (while protected from light), assays plates were read on an Infinite M1000 (Tecan) multiplate reader (Ex. 680/30; Em. 570/100).
Figure 3 Dose-response curves in primary and orthogonal screens. (A) AlphaScreen dose-response curves. […] Data are expressed as mean fluorescence (Fl520) ± range from duplicates, and one representative experiment of “n” performed is shown. (B) Orthogonal ELISA-based dose-response assays. […] Data are expressed as mean abs450 ± SEM from triplicate determinations, and one of three representative experiments is shown. (C) Ceftazidime inhibition of β3 peptide binding to Syk from THP-1 whole cell lysate. THP-1 cell lysate (100 ug) was treated with or without ceftazidime (Ctaz) before incubation with β3-coated avidin-agarose beads, and bound Syk was measured by western blot (example shown in inset). Blank beads served as a negative control. Equal β3 peptide loading was verified by probing blots with avidin-HRP (not shown).

[3] = Solubility under assay conditions; format: physicochemical
[4] = Figure 3A: biotinylated-b3(sh) peptide 30 nM, GST-Syk(6-370) 0.3 nM, read-out: IC50, AlphaScreen dose-response

effect on melting temperature (Tm) of Syk(6-370) (GST-free Syk(6-370)) | inhibitory activity in ELISA-based orthogonal assay [1] | IC50 [2, 4] | IC50 ([2]; abstract summary for both compounds, read-out: IC50 range, inhibition of integrin β-subunit cytoplasmic domain binding to the tandem SH2 domains of Syk) | IC50 ([2]; as restated in the Discussion, read-out: IC50 in AlphaScreen assays) | IC50 ([2]; biotinylated-b3(sh) peptide 30 nM, GST-Syk(6-370) 0.3 nM, read-out: value printed in Figure 3A, AlphaScreen dose-response (no measure name)) | fold difference in inhibition, primary screen over false-positive counter screen (hit criterion) [2] | inhibition of fluorescent signal in the primary screen, re-sourced compounds (hit criterion) [2] | solubility under ELISA assay conditions ([3]; ELISA assay buffer, highest doses tested) | solubility for retest in primary and false-positive screens ([3]; re-sourced hit retest, 30 uM) | Molecule
decreased | remained active | 4.9 ± 4.2 µM | 1.02 to 4.9 µM | 4.2 µM | 4.89 ± 4.2 µM | greater than 3 fold | greater than 50% |  |  | NC(=O)c1cc[n+](CC2=C(C(=O)O)N3C(=O)[C@@H](NC(=O)[C@@H](c4ccccc4)S(=O)(=O)[O-])[C@H]3SC2)cc1 [cefsulodin]
 |  | 22.4 ± 4.1 µM |  |  |  | greater than 3 fold | greater than 50% | not soluble at the highest doses tested |  | C=C1c2cccc(O)c2C(=O)C2=C(O)[C@]3(O)C(=O)C(C(N)=O)=C(O)[C@@H](N(C)C)[C@@H]3[C@@H](O)[C@H]12 [methacycline]
 |  |  |  |  |  |  |  |  | lack of solubility | CC[C@@]1(O)C(=O)OCc2c1cc1n(c2=O)Cc2cc3c(CN(C)C)c(O)ccc3nc2-1 [topotecan]
 | did not demonstrate inhibitory activity | 0.038 ± 0.019 µM |  |  |  | greater than 3 fold | greater than 50% |  |  | neomycin sulfate
